US20240190874A1, “SMALL MOLECULE DEGRADERS OF ANDROGEN RECEPTOR” (THE REGENTS OF THE UNIVERSITY OF MICHIGAN, priority 2021, published 2024)

Molecular target: T1, AR (Homo sapiens, UniProt P10275)
T1 construct: Degradation of AR; Cellular potency; host or cells: VCaP cells
T1 sequence (P10275 1-920): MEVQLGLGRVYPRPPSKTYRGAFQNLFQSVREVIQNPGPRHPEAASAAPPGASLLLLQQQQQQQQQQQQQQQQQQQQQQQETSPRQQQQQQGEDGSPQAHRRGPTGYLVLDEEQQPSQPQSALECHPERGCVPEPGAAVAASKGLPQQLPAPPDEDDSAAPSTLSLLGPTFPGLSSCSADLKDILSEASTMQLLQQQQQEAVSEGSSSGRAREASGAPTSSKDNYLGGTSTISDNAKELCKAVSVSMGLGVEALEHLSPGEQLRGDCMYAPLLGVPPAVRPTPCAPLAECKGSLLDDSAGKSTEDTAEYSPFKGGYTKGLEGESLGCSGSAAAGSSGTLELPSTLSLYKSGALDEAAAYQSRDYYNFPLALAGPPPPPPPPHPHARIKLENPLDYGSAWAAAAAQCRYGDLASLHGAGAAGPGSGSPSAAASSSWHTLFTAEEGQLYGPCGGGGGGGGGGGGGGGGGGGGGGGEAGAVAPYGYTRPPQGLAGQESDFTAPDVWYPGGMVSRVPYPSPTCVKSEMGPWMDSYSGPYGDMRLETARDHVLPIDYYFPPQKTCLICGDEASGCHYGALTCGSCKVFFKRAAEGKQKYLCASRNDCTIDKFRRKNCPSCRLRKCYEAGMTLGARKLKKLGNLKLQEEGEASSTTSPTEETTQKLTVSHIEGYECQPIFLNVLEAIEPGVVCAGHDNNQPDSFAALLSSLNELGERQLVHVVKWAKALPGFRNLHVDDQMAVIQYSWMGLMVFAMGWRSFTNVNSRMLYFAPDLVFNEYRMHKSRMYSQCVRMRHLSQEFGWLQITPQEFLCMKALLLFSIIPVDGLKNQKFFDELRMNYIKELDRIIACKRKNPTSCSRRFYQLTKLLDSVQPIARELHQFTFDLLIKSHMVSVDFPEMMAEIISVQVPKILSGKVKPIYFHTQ
Experiment: Degradation of AR in VCaP cells
Assay type: cell-based
Conditions: VCaP cells
Protocol: (§1) Biological Assays. LNCaP and VCaP cells used were purchased from American Type Culture Collection (ATCC). LNCaP were grown in RPMI 1640 (Invitrogen) and VCaP cells were grown in DMEM with Glutamax (Invitrogen). All of the cells were supplemented with 10% fetal bovine serum (Invitrogen) at 37° C. in a humidified 5% CO2 incubator.

C[C@H]1CC2(CCN(c3ccc(S(=O)(=O)C4CCN(C(=O)CN5Cc6cc7c(cc6C5)C(=O)N(C5CCC(=O)NC5=O)C7=O)CC4)cc3)CC2)CN1c1ccc(C#N)c(Cl)c1 (stereo partly drawn) [compound 152] and C[C@H]1CC2(CCN(c3ccc(C(=O)N4CCC(C(=O)CN5Cc6cc7c(cc6C5)C(=O)N(C5CCC(=O)NC5=O)C7=O)CC4)nc3)CC2)CN1c1ccc(C#N)c(Cl)c1 (stereo partly drawn) [compound 160] cannot be ordered by DC50: less than 0.001 µM for the first, less than 0.001 µM for the second.

C[C@H]1CC2(CCN(c3ccc(CN4CCN(C5CCN(c6ccc7c(c6)C(=O)N(C6CCC(=O)NC6=O)C7=O)CC5)CC4)cn3)CC2)CN1c1ccc(C#N)c(Cl)c1 (stereo partly drawn) [compound 154] and C[C@H]1CC2(CCN(c3ccc(CN4CCN(C5CCN(c6cc7c(cc6F)C(=O)N(C6CCC(=O)NC6=O)C7=O)CC5)CC4)cn3)CC2)CN1c1ccc(C#N)c(Cl)c1 (stereo partly drawn) [compound 165] cannot be ordered by DC50: less than 0.001 µM for the first, less than 0.01 µM for the second.

C[C@H]1CC2(CCN(c3ccc(S(=O)(=O)C4CCN(C5CCN(c6ccc7c(c6)C(=O)N(C6CCC(=O)NC6=O)C7=O)CC5)CC4)cc3)CC2)CN1c1ccc(C#N)c(Cl)c1 (stereo partly drawn) [compound 161] and C[C@H]1CC2(CCN(c3ccc(S(=O)(=O)C4CCN(C5CN(c6ccc7c(c6)C(=O)N(C6CCC(=O)NC6=O)C7=O)C5)CC4)cc3)CC2)CN1c1ccc(C#N)c(Cl)c1 (stereo partly drawn) [compound 163] cannot be ordered by DC50: less than 0.001 µM for the first, less than 0.001 µM for the second.

C[C@H]1CC2(CCN(c3ccc(S(=O)(=O)C4CCN(CC5CCN(c6ccc7c(c6)C(=O)N(C6CCC(=O)NC6=O)C7=O)CC5)CC4)cc3)CC2)CN1c1ccc(C#N)c(Cl)c1 (stereo partly drawn) [compound 162] and C[C@H]1CC2(CCN(c3ccc(S(=O)(=O)C4CCN(CC5CN(c6ccc7c(c6)C(=O)N(C6CCC(=O)NC6=O)C7=O)C5)CC4)cc3)CC2)CN1c1ccc(C#N)c(Cl)c1 (stereo partly drawn) [compound 164] cannot be ordered by DC50: less than 0.001 µM for the first, less than 0.001 µM for the second.

Test system: VCaP cells
Experiment: Cellular potency (IC50) in VCaP cells
Assay type: cell-based
Conditions: Homo sapiens, VCaP
Protocol: as §1

C[C@H]1CC2(CCN(c3ccc(S(=O)(=O)C4CCN(C(=O)CN5Cc6cc7c(cc6C5)C(=O)N(C5CCC(=O)NC5=O)C7=O)CC4)cc3)CC2)CN1c1ccc(C#N)c(Cl)c1 (stereo partly drawn) [compound 152] and C[C@H]1CC2(CCN(c3ccc(C(=O)N4CCC(C(=O)CN5Cc6cc7c(cc6C5)C(=O)N(C5CCC(=O)NC5=O)C7=O)CC4)nc3)CC2)CN1c1ccc(C#N)c(Cl)c1 (stereo partly drawn) [compound 160] cannot be ordered by IC50: less than 0.1 µM for the first, less than 1 µM for the second.

C[C@H]1CC2(CCN(c3ccc(CN4CCN(C5CCN(c6ccc7c(c6)C(=O)N(C6CCC(=O)NC6=O)C7=O)CC5)CC4)cn3)CC2)CN1c1ccc(C#N)c(Cl)c1 (stereo partly drawn) [compound 154] and C[C@H]1CC2(CCN(c3ccc(CN4CCN(C5CCN(c6cc7c(cc6F)C(=O)N(C6CCC(=O)NC6=O)C7=O)CC5)CC4)cn3)CC2)CN1c1ccc(C#N)c(Cl)c1 (stereo partly drawn) [compound 165] cannot be ordered by IC50: less than 0.1 µM for the first, less than 0.01 µM for the second.

C[C@H]1CC2(CCN(c3ccc(S(=O)(=O)C4CCN(C5CCN(c6ccc7c(c6)C(=O)N(C6CCC(=O)NC6=O)C7=O)CC5)CC4)cc3)CC2)CN1c1ccc(C#N)c(Cl)c1 (stereo partly drawn) [compound 161] and C[C@H]1CC2(CCN(c3ccc(S(=O)(=O)C4CCN(C5CN(c6ccc7c(c6)C(=O)N(C6CCC(=O)NC6=O)C7=O)C5)CC4)cc3)CC2)CN1c1ccc(C#N)c(Cl)c1 (stereo partly drawn) [compound 163] cannot be ordered by IC50: less than 0.01 µM for the first, less than 0.01 µM for the second.

C[C@H]1CC2(CCN(c3ccc(S(=O)(=O)C4CCN(CC5CCN(c6ccc7c(c6)C(=O)N(C6CCC(=O)NC6=O)C7=O)CC5)CC4)cc3)CC2)CN1c1ccc(C#N)c(Cl)c1 (stereo partly drawn) [compound 162] and C[C@H]1CC2(CCN(c3ccc(S(=O)(=O)C4CCN(CC5CN(c6ccc7c(c6)C(=O)N(C6CCC(=O)NC6=O)C7=O)C5)CC4)cc3)CC2)CN1c1ccc(C#N)c(Cl)c1 (stereo partly drawn) [compound 164] cannot be ordered by IC50: less than 0.01 µM for the first, less than 0.01 µM for the second.

Test system: LNCaP cells
Experiment: Cellular potency (IC50) in LNCaP cells
Assay type: cell-based
Conditions: Homo sapiens, LNCaP
Protocol: as §1

C[C@H]1CC2(CCN(c3ccc(S(=O)(=O)C4CCN(C(=O)CN5Cc6cc7c(cc6C5)C(=O)N(C5CCC(=O)NC5=O)C7=O)CC4)cc3)CC2)CN1c1ccc(C#N)c(Cl)c1 (stereo partly drawn) [compound 152] and C[C@H]1CC2(CCN(c3ccc(C(=O)N4CCC(C(=O)CN5Cc6cc7c(cc6C5)C(=O)N(C5CCC(=O)NC5=O)C7=O)CC4)nc3)CC2)CN1c1ccc(C#N)c(Cl)c1 (stereo partly drawn) [compound 160] cannot be ordered by IC50: less than 0.1 µM for the first, less than 0.01 µM for the second.

C[C@H]1CC2(CCN(c3ccc(CN4CCN(C5CCN(c6ccc7c(c6)C(=O)N(C6CCC(=O)NC6=O)C7=O)CC5)CC4)cn3)CC2)CN1c1ccc(C#N)c(Cl)c1 (stereo partly drawn) [compound 154] and C[C@H]1CC2(CCN(c3ccc(CN4CCN(C5CCN(c6cc7c(cc6F)C(=O)N(C6CCC(=O)NC6=O)C7=O)CC5)CC4)cn3)CC2)CN1c1ccc(C#N)c(Cl)c1 (stereo partly drawn) [compound 165] cannot be ordered by IC50: less than 0.01 µM for the first, less than 0.01 µM for the second.

C[C@H]1CC2(CCN(c3ccc(S(=O)(=O)C4CCN(C5CCN(c6ccc7c(c6)C(=O)N(C6CCC(=O)NC6=O)C7=O)CC5)CC4)cc3)CC2)CN1c1ccc(C#N)c(Cl)c1 (stereo partly drawn) [compound 161] and C[C@H]1CC2(CCN(c3ccc(S(=O)(=O)C4CCN(C5CN(c6ccc7c(c6)C(=O)N(C6CCC(=O)NC6=O)C7=O)C5)CC4)cc3)CC2)CN1c1ccc(C#N)c(Cl)c1 (stereo partly drawn) [compound 163] cannot be ordered by IC50: less than 0.01 µM for the first, less than 0.01 µM for the second.

C[C@H]1CC2(CCN(c3ccc(S(=O)(=O)C4CCN(CC5CCN(c6ccc7c(c6)C(=O)N(C6CCC(=O)NC6=O)C7=O)CC5)CC4)cc3)CC2)CN1c1ccc(C#N)c(Cl)c1 (stereo partly drawn) [compound 162] and C[C@H]1CC2(CCN(c3ccc(S(=O)(=O)C4CCN(CC5CN(c6ccc7c(c6)C(=O)N(C6CCC(=O)NC6=O)C7=O)C5)CC4)cc3)CC2)CN1c1ccc(C#N)c(Cl)c1 (stereo partly drawn) [compound 164] cannot be ordered by IC50: less than 0.01 µM for the first, less than 0.1 µM for the second.
